By IC50 is commonly meant the concentration needed to halve the response being measured. The low end stands for greater potency, the high end for weaker potency.

The target of one test is IMPDH1 (Homo sapiens, UniProt P20839). Put plainly: spectrophotometric NADH production at […] nm. It is filed as biochemical.
For a further test, the target named is IMPDH2 (Homo sapiens, UniProt P12268). Put plainly: spectrophotometric NADH production at […] nm. The test is classed as biochemical.
Sequence of IMPDH2 (P12268 2-514): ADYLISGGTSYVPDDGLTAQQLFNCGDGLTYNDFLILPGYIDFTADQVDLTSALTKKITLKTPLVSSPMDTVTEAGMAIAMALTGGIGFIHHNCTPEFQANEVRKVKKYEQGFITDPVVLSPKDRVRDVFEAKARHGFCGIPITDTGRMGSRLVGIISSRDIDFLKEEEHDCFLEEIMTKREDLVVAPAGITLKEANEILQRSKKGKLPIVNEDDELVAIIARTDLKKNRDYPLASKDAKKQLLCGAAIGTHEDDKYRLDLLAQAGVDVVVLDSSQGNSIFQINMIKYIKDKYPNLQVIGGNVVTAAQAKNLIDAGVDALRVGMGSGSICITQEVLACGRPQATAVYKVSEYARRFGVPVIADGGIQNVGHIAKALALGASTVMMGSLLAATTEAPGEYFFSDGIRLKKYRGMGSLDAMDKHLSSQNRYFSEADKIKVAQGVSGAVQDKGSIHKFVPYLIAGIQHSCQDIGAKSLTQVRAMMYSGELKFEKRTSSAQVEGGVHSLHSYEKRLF

Sequence of IMPDH1 (P20839 2-514): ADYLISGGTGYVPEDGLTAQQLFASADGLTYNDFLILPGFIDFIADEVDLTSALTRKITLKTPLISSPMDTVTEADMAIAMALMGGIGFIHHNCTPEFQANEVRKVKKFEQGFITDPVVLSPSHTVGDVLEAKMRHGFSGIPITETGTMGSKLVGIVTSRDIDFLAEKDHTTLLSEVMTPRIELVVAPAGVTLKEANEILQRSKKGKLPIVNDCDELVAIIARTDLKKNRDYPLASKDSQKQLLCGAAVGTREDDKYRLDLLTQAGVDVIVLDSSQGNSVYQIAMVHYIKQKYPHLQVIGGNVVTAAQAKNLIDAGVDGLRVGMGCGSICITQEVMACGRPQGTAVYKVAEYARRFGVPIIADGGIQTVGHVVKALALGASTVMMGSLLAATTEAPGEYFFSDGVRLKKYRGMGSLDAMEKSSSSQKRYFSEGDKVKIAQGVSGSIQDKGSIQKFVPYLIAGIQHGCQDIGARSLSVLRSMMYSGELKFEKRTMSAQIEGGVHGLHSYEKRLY

Regarding `NC(=O)c1ncn([C@@H]2O[C@H](COP(=O)(O)O)[C@@H](O)[C@H]2O)c1O` [FF‐10501RMP], the figures for the IC50 on IMPDH1 and at IMPDH2 were 0.029 ± 0.0103 µM and 0.0318 ± 0.0056 µM, respectively.
On IMPDH1, `COc1c(C)c2c(c(O)c1C/C=C(\C)CCC(=O)O)C(=O)OC2` [Mycophenolic acid, reference compound] showed a concentration for half-maximal inhibition (IC50) of 0.0264 ± 0.0015 µM.

Source of the values: paper PMC4777262 (Pharmacology Research & Perspectives, 2016).
